Data published in patent US10919938B2, “Modified cyclopentapeptides and uses thereof” (TECHNISCHE UNIVERSITÄT MÜNCHEN, priority 2014, dated 2021).
Like-named read-outs stand apart in the source and are kept apart here. Non-standard residues stand in square brackets, D forms with d. Residues, ends and D or L forms follow the SMILES beside them. Groups on a side chain read outwards from the residue. *: point of attachment. DOTA(Ga) = O=C1CN2CCN3CCN(CC(=O)*)CCN(CC2)CC(=O)[O][Ga]([O]1)[O]C(=O)C3; DOTA = O=C(O)CN1CCN(CC(=O)O)CCN(CC(=O)*)CCN(CC(=O)O)CC1; 2Nal = N[C@@H](Cc1ccc2ccccc2c1)C(=O)O; dNMeOrn = CN[C@H](CCCN)C(=O)O; 4Amb = NCc1ccc(C(=O)O)cc1; 4Abz = Nc1ccc(C(=O)O)cc1; Ahx = NCCCCCC(=O)O

How the values were obtained:
[1] = biological target: T1, hCXCR4 (Homo sapiens, UniProt P61073); conditions: stated in text as had been shown; cited from earlier work
T1 construct: endogenous in cells; host or cells: Jurkat human T lymphocyte cells
T1 sequence (P61073 whole entry): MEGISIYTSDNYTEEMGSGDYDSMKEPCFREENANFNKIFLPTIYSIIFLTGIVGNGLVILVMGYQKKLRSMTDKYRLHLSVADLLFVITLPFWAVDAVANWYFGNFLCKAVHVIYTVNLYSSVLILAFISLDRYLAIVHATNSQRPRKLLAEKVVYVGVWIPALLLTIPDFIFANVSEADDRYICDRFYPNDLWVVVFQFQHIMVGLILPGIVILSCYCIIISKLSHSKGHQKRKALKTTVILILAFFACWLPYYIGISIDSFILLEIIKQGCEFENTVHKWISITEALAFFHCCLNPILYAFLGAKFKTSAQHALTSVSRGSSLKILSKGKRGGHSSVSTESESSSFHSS

[2] = biological target: T1, hCXCR4; experiment: Determination of IC50: competition against [^125I]FC-131 on Jurkat cells; type: binding; conditions: hCXCR4-expressing Jurkat T-cell leukemia cells, [^125I]FC-131 as radioligand, mean ± SD
Description: (§1) After washing twice with 400 piL of cold PBS, the amount of bound radioligand was quantified using a γ-counter. Nonspecific binding was determined in the presence of 1 μM FC131. IC50 values were calculated using the PRISM 4 program (Graph Pad Software, San Diego, Calif.).

[3] = biological target: T1, hCXCR4; experiment: Determination of inverse IC50: radioiodinated peptides against standard competitor FC-131 on Jurkat cells; type: binding; conditions: combining IC50 and inverse IC50 assays
Description: as §1
Experiments were performed in analogy the determination of IC50.

[4] = test system: Daudi (high CXCR4) and SU-DHL-8 (low CXCR4) xenografts; experiment: Dual tracer biodistribution study in tumor bearing SCID mice; conditions: i.v., 1 h p.i.
Description: (§6) For the induction of tumor growth, female CB-17 SCID mice (6-8 weeks, Charles River, Sulzfeld, Germany) were injected subcutaneously with app. 5×10^6 Daudi (right shoulder) or SU-DHL-8 (left shoulder) cells suspended in 100 μL of a 1:1 (v/v) mixture of serum free culture medium and Matrigel (BD Biosciences, Heidelberg, Germany). Within 10-21 days, solid palpable tumors had grown (100-800 mg), and the animals were used for the experiments.
(§7) The animals were sacrificed 90 min post injection (p.i.), and the organs of interest were dissected. The radioactivity was measured in weighted tissue samples using a γ-counter. Data are expressed in % ID/g tissue (mean±SD).

[5] = Determination of lipophilicity (octanol/PBS partition); type: physicochemical; conditions: octanol / PBS pH 7.4, radiolabeled peptide
Description: To a solution of app. 2 kBq of radiolabeled peptide in 500 tiL of PBS (pH 7.4), 500 μL of octanol were added (n=6). Vials were vortexed vigorously for 3 min. To achieve quantitative phase separation, the vials were centrifuged at 14,000×g for 6 min in a Biofuge 15 (Heraeus Sepatech, Osterode, Germany). The activity concentrations in 100 μL-samples of both the aqueous and the organic phase were measured in a γ-counter. Both the partition coefficient Pow, which is defined as the molar concentration ratio of a single species A between octanol and an aqueous phase at equilibrium, and log Pow, which is an important parameter used to characterize lipophilicity of a compound, were calculated.

[6] = test system: Jurkat cells; experiment: Dual tracer externalization study (suspension cells), Jurkat; type: cell-based, human
Description: (§2) To ensure receptor integrity, no acid wash was performed after this initial internalization incubation. Then, to determine the extent of ligand recycling, two different experiments were performed. In the experiment allowing ligand recycling, 250 μL of assay medium were added to each well. […] Experiments were carried out in triplicate for both experimental conditions. Subsequently, the cells were incubated for 5, 15, 30 and 60 minutes at 37° C. Then, the tubes were centrifuged, the supernatant was removed and combined with 250 μL of HBSS used for washing the cells. This fraction represents the amount of externalized ligand. The following steps, i.e. acid wash and quantification of the remaining cellular activity, were performed as described for the internalization experiment.

[7] = test system: SH-SY5Y cells; experiment: Dual tracer externalization study (adherent cells), SH-SY5Y; type: cell-based, human
Description: (§3) In the experiment allowing ligand recycling 250 µL of assay medium were added to the wells (n=3). […] Subsequently, cells were incubated at 37° C. for 5, 15, 30 and 60 min, respectively. The supernatant was removed and combined with 250 μL of HBSS used for rinsing the cells. This fraction represents the amount of externalized ligand at the respective time point. The following lysis of the cells was performed as desribed for the internalization experiment.

[8] = test system: Daudi cells; experiment: Dual tracer internalization study (suspension cells), Daudi; type: cell-based, human; conditions: 30 min, 37° C., corrected for non-specific binding (100 μM AMD3100)
Description: (§4) The total sample volume was 250 μL. After incubation, the tubes were centrifuged (3 min, 1300 rcf, Megafuge 1.0, Heraeus Thermo Scientific), the supernatant was carefully removed and combined with 200 μL of ice cold HBSS used for washing the cells (free radioligand). To remove surface bound (acid releasable) radioactivity, cells were then washed twice with ice cold acid wash buffer (0.02 M NaOAc in saline buffered with AcOH to pH=5). Finally, the amount of internalized activity in the cell pellet as well as the fraction of free and acid releasable ^68Ga-activity were determined using a γ-counter.

[9] = test system: HT-29 cells; experiment: Dual tracer externalization study (adherent cells), HT-29; type: cell-based, human
Description: as §3

[10] = test system: CXCR4 expressing cell lines; experiment: Dual tracer internalization studies in various human cancer cell lines; type: cell-based; conditions: in all cell lines
Description: as §4
2·10^5 cells per well. On the day of the experiment, the culture medium was removed and the cells were washed once with 250 μL of unsupplemented medium before being left to equilibrate in 200 μL of assay medium at 37° C. for a minimum of 15 min before the experiment. […] (n=3 wells, respectively, per time point). Incubation was terminated by placing the plate on an ice pack for app. 1 min and by subsequent removal of the incubation medium. Cells were thoroughly rinsed with 250 μL of HBSS. After washing twice with 250 μL of ice cold acid wash buffer (0.02 M NaOAc buffered with AcOH to pH=5), cells were lysed with 250 μL of 1 N NaOH. […] Quantification of the amount of free, acid-releasable and internalized activity was performed as described.

[11] = test system: SUDHL-8 cells; experiment: Dual tracer internalization study (suspension cells), SUDHL-8; type: cell-based, human; conditions: SUDHL-8, 30 min, 37° C., corrected for non-specific binding (100 μM AMD3100)
Description: as §4

[12] = test system: HT-29 cells; experiment: Dual tracer internalization study (adherent cells), HT-29; type: cell-based, human; conditions: HT-29, 30 min, 37° C., corrected for non-specific binding (100 μM AMD3100)
Description: (§5) 2·10^5 cells per well. On the day of the experiment, the culture medium was removed and the cells were washed once with 250 μL of unsupplemented medium before being left to equilibrate in 200 μL of assay medium at 37° C. for a minimum of 15 min before the experiment. […] (n=3 wells, respectively, per time point). Incubation was terminated by placing the plate on an ice pack for app. 1 min and by subsequent removal of the incubation medium. Cells were thoroughly rinsed with 250 μL of HBSS. After washing twice with 250 μL of ice cold acid wash buffer (0.02 M NaOAc buffered with AcOH to pH=5), cells were lysed with 250 μL of 1 N NaOH. The lysate was transferred to vials and combined with 250 μL of HBSS used for rinsing the wells. Quantification of the amount of free, acid-releasable and internalized activity was performed as described.

[13] = test system: MCF-7 cells; experiment: Dual tracer internalization study (adherent cells), MCF-7; type: cell-based, human; conditions: MCF-7, 30 min, 37° C., corrected for non-specific binding (100 μM AMD3100)
Description: as §5

[14] = test system: Jurkat cells; experiment: Dual tracer internalization study (suspension cells), Jurkat; type: cell-based, human
Description: as §4

[15] = test system: Daudi cells; experiment: Dual tracer externalization study (suspension cells), Daudi; type: cell-based, human
Description: as §2

[16] = test system: DU-145 cells; experiment: Dual tracer internalization study (adherent cells), DU-145; type: cell-based, human; conditions: DU-145, 30 min, 37° C., corrected for non-specific binding (100 μM AMD3100)
Description: as §5

[17] = test system: Daudi (high CXCR4) and SU-DHL-8 (low CXCR4) xenografts; conditions: mouse, in vivo, iv
Description: as §6, §7

[18] = test system: SH-SY5Y cells; experiment: Dual tracer internalization study (adherent cells), SH-SY5Y; type: cell-based, human; conditions: 30 min, 37° C., corrected for non-specific binding (100 μM AMD3100)
Description: as §5

[19] = test system: MCF-7 cells; experiment: Dual tracer externalization study (adherent cells), MCF-7; type: cell-based, human
Description: as §3

[20] = recycling allowed (medium only)
[21] = recycling inhibited (100 μM AMD3100)

For 3-iodo-D-Tyr^1-FC-131, the IC50 [1] is listed as 0.0013 µM.
Compound `CN1C(=O)[C@@H](Cc2ccc(O)cc2)NC(=O)CNC(=O)[C@H](Cc2ccc3ccccc3c2)NC(=O)[C@H](CCCNC(=N)N)NC(=O)[C@H]1CCCNC(=O)c1ccc(NC(=O)CCCCCNC(=O)CN2CCN3CCN4CCN(CC2)CC(=O)[O][Ga]([O]C(=O)C3)[O]C(=O)C4)cc1` [yorn′(ABS, Ahx, DOTA, Ga)RNalG] (cyclo([2Nal]G[dY][dNMeOrn]([4Abz-Ahx-DOTA(Ga)])R)) has an IC50 [2] of 0.0303 ± 0.00652 µM.
With `CN1C(=O)[C@@H](Cc2ccc(O)cc2)NC(=O)CNC(=O)[C@H](Cc2ccc3ccccc3c2)NC(=O)[C@H](CCCNC(=N)N)NC(=O)[C@H]1CCCNC(=O)c1ccc(CNC(=O)CN2CCN3CCN4CCN(CC2)CC(=O)[O][Ga]([O]C(=O)C3)[O]C(=O)C4)cc1` [yorn′(AMBS, DOTA, Ga)RNalG] (cyclo([2Nal]G[dY][dNMeOrn]([4Amb-DOTA(Ga)])R)) the “increase in CXCR4 affinity by (radio)iodination, factor” value [3] was ~20.
For `CN1C(=O)[C@@H](Cc2ccc(O)cc2)NC(=O)CNC(=O)[C@H](Cc2ccc3ccccc3c2)NC(=O)[C@H](CCCNC(=N)N)NC(=O)[C@H]1CCCNC(=O)c1ccc(CNC(=O)CN2CCN(CC(=O)O)CCN(CC(=O)O)CCN(CC(=O)O)CC2)cc1` [yorn′(AMBS, DOTA, ^68Ga)RNalG, metal not drawn] (cyclo([dY][dNMeOrn]([4Amb-DOTA])R[2Nal]G)), the “tumor-to-non-tumor ratios (in words)” value [4] was “comparable”.
In the case of [^125I]yorn′(ABS, Avs, DOTA, Lu)RNalG, the “Log PO/PBS” value [5] is reported as −1.23.
With [^125I]yorn′(ABS, DOTA, In)RNalG the “Log PO/PBS” value [5] was −1.37.
In the case of [^125I]yorn′(ABS, G, DOTA, Lu)RNalG, the “Log PO/PBS” value [5] is reported as −1.28.
With [^125I]yorn′(AMBS, DOTA, Ga)RNalG the “Residual internalized activity after a 60 min externalization incubation” value (“Residual internalized activity” below) [6, 20] was 8.0 ± 2.0 % of total cellular activity at t = 0, the “Residual internalized activity” value [6, 21] was 3.7 ± 1.3 % of total cellular activity at t = 0 and the “Residual internalized activity” value [7, 20] was 11.2 ± 2.5 % of total cellular activity at t = 0. For the same compound, the “Residual internalized activity” value [7, 21] was 7.8 ± 1.0 % of total cellular activity at t = 0, the “Internalization efficiency (internalized activity in % of total cellular activity)” value [8] was 51.3 ± 4.4 % of total cellular activity and the “Log PO/PBS” value [5] was −1.56. The “Residual internalized activity” value ([9]; HT-29, recycling allowed (medium only)) was 13.5 ± 2.6 % of total cellular activity at t = 0, the “Residual internalized activity” value ([9]; HT-29, recycling inhibited (100 μM AMD3100)) was 10.5 ± 2.5 % of total cellular activity at t = 0 and the “ligand recycling (in words)” value ([9]; HT-29 cells, nearly identical results for the other cell lines) was “almost no ligand recycling”. The “internalization compared to yorn′(AMBS, DOTA, ^68Ga)RNalG (in words)” value [10] was “significantly higher internalization”, the “Internalization efficiency (internalized activity in % of total cellular activity)” value [11] was 29.9 ± 5.2 % of total cellular activity and the “Internalization efficiency (internalized activity in % of total cellular activity)” value [12] was 77.9 ± 4.6 % of total cellular activity. For the same compound, the “Internalization efficiency (internalized activity in % of total cellular activity)” value [13] was 37.6 ± 3.7 % of total cellular activity, the “fraction of membrane bound activity versus internalized activity (in words)” value ([14]; Jurkat cells, comparable for the other cell lines) was “considerably higher” and the “Internalization efficiency (internalized activity in % of total cellular activity)” value ([14]; Jurkat, 30 min, 37° C., corrected for non-specific binding (100 μM AMD3100)) was 27.4 ± 2.0 % of total cellular activity. The “Residual internalized activity” value [15, 20] was 14.5 ± 2.0 % of total cellular activity at t = 0, the “Residual internalized activity” value [15, 21] was 7.0 ± 0.5 % of total cellular activity at t = 0 and the “Internalization efficiency (internalized activity in % of total cellular activity)” value [16] was 69.1 ± 18.2 % of total cellular activity. The “tumor-to-non-tumor ratios (in words)” value [17] was “comparable”, the “Internalization efficiency (internalized activity in % of total cellular activity)” value [18] was 57.3 ± 7.1 % of total cellular activity and the “Residual internalized activity” value ([19]; MCF-7, recycling allowed (medium only)) was 10.4 ± 1.4 % of total cellular activity at t = 0. For the same compound, the “Residual internalized activity” value ([19]; MCF-7, recycling inhibited (100 μM AMD3100)) was 8.7 ± 1.1 % of total cellular activity at t = 0.
For [^125I]yorn′(AMBS, DOTA, In)RNalG, the “Log PO/PBS” value [5] was −1.39.
In the case of [^125I]yorn′(AMBS, DOTA, Lu)RNalG, the “Log PO/PBS” value [5] is reported as −1.38.
In the case of “cyclo(-D-Tyr^1[^125I]-Arg^2-Arg^3-Na1^4-Gly^5 [[^125I]FC-131, reference compound]”, the “Log PO/PBS” value [5] is reported as −0.35.
With yorn′(ABS, Ahx, DOTA, In)RNalG the IC50 [2] was 0.0265 ± 0.0226 µM.
Work on yorn′(ABS, G, DOTA, Ga)RNalG yielded an IC50 [2] of 0.0167 ± 0.00328 µM.
With yorn′(AMBS, DOTA, In)RNalG the IC50 [2] was 0.0449 ± 0.0104 µM.
In the case of yorn′(DOTA, In)RNalG, the IC50 [2] is reported as > 1 µM.
